Data taken from patent US20240334941A1, “HIGH-EFFICACY NATURAL PRESERVATIVES” (BioVeritas, LLC, priority 2023, published 2024).

Legend:
[1] = Water activity and pH of bread dough prior to baking; assay type: physicochemical
Procedure: Example 2. A comparative shelf-life study was performed using pup loaves by an ISO/IEC 17025:2017 certified laboratory, Great Plains Analytical Laboratory, Kansas City, MO, USA. A standard white bread dough formulation was prepared (pup loaves) for each test group. Approximately 500 grams of dry material was used to prepare 3 pup loaves per test group. Various preservatives, which were to act as mold inhibitors, were added to the doughs. The amount of preservatives added to each dough is reported as a weight percentage based on the mass of flour in the dough (“on flour”). Each mold inhibitor was thoroughly mixed into the formulation for each dough. The percentage inclusion and type of mold inhibitor on flour is outlined in Table 2. Three of the mold inhibitors were made with acetic and propionic acid produced from fermentation using a mixed consortium of naturally occurring microorganisms or microbiome using the methods previously described herein. […] The second and third comparative mold inhibitors were high-efficacy clean-label acetate/propionate mold inhibitors, with one having an acetate/propionate weight ratio of 1:1 (50 wt. % acetate/50 wt. % propionate) (BV1) and the other one having an acetate/propionate weight ratio of 1:6 (14 wt. % acetate/86 wt. % propionate) (BV2). […] After mixing, the dough was divided into disposable bread pans and allowed to ferment for 3 hours at 86±1° F. and 60% relative humidity, proofed for 55 minutes at 109±1° F. and 90% humidity, and baked for 15 minutes at 425±1° F. This procedure was repeated for each test group for a total of 30 loaves of bread. The internal temperature of each loaf was recorded upon exiting the oven and prior to packaging (Table 3). In addition, water activity and pH were measured in one of the replicates for each group prior to baking using a water activity meter and a pH meter (Table 4). The product odor (similar to baseline or off odor development), color, and general appearance were evaluated daily. Each sample was opened and closed daily until visible mold appeared.

[2] = Water activity and pH of tortilla dough prior to baking; assay type: physicochemical
Procedure: After mixing the tortilla formulation ingredients with the corresponding mold inhibitor, samples of rounded dough were placed onto parchment paper and allowed to ferment for 20 minutes at 82±2° F. and 85% relative humidity. The dough was then pressed into a tortilla form, cooked, cooled, and packaged. This procedure was repeated for each test group. One replicate of dough for each group was tested prior to baking. Water activity was measured using a water activity meter. Measurements for pH were made using a pH meter. The product odor (similar to baseline or off odor development), color, and general appearance were evaluated daily. Each sample was opened and closed daily, until visible mold appeared.

[3] = test system: mold; assay: Comparative shelf-life study using pup loaves (white bread), days until visible mold
Procedure: Example 2. A comparative shelf-life study was performed using pup loaves by an ISO/IEC 17025:2017 certified laboratory, Great Plains Analytical Laboratory, Kansas City, MO, USA. A standard white bread dough formulation was prepared (pup loaves) for each test group. Approximately 500 grams of dry material was used to prepare 3 pup loaves per test group. Various preservatives, which were to act as mold inhibitors, were added to the doughs. The amount of preservatives added to each dough is reported as a weight percentage based on the mass of flour in the dough (“on flour”). Each mold inhibitor was thoroughly mixed into the formulation for each dough. The percentage inclusion and type of mold inhibitor on flour is outlined in Table 2. Three of the mold inhibitors were made with acetic and propionic acid produced from fermentation using a mixed consortium of naturally occurring microorganisms or microbiome using the methods previously described herein. […] The second and third comparative mold inhibitors were high-efficacy clean-label acetate/propionate mold inhibitors, with one having an acetate/propionate weight ratio of 1:1 (50 wt. % acetate/50 wt. % propionate) (BV1) and the other one having an acetate/propionate weight ratio of 1:6 (14 wt. % acetate/86 wt. % propionate) (BV2). […] The internal temperature of each loaf was recorded upon exiting the oven and prior to packaging (Table 3). In addition, water activity and pH were measured in one of the replicates for each group prior to baking using a water activity meter and a pH meter (Table 4). The product odor (similar to baseline or off odor development), color, and general appearance were evaluated daily. […]
Three sample loaves were produced using each of the inhibitor treatments, and the number of days until mold was observed was recorded for each loaf. […] No off-odors were detected over time in any of the treatments.

[4] = test system: mold; assay: Comparative shelf-life study using flour tortillas, days until visible mold
Procedure: Example 3. A comparative shelf-life study using flour tortillas was performed by an ISO/IEC 17025:2017 certified laboratory, Great Plains Analytical Laboratory, Kansas City, MO. The purpose of this study was to compare the efficacy of preservatives, which were to act as mold inhibitors, in a tortilla formulation. A total of 10 test groups of tortillas were prepared: 9 test groups contained various mold inhibitors and one test group served as control, without a mold inhibitor (no additive). Test groups were stored at ambient temperature for 30 days to determine the overall efficacy of the inhibitors and compare the performance of the inhibitors in the tortilla formulation. […]
After mixing the tortilla formulation ingredients with the corresponding mold inhibitor, samples of rounded dough were placed onto parchment paper and allowed to ferment for 20 minutes at 82±2° F. and 85% relative humidity. […] Water activity was measured using a water activity meter. […] The product odor (similar to baseline or off odor development), color, and general appearance were evaluated daily. […]
The results for the tortilla shelf-life study comparing the preservative/mold inhibitors treatments are graphically shown in FIG. 2. Three tortilla samples were produced using each of the inhibitor treatments, and the number of days until mold was observed was recorded for each sample. […]

[5] = test system: mold; assay: Shelf-life study using pup loaves (Example 6), day of visible mold; settings: ambient temperature
Procedure: Example 6. In another example, a comparative shelf-life and sensory study using pup loaves was performed by an ISO/IEC 17025:2017 certified laboratory, Great Plains Analytical Laboratory, Kansas City, MO. A total of seven test groups of white bread in a pup loaf formulation were prepared. […] Test groups were stored at ambient temperature for between 7 and 15 days to determine the overall efficacy of the inhibitors and compare the performance of the inhibitors in the bread formulation. Sensory analysis was performed examining the flavor and crumb texture for all samples. The studies were conducted concurrently.
A standard white bread dough formulation was prepared for each test group. Three pup loaves were prepared for each test group for the visual examination portion of the study. […] The bread was baked for 15 minutes at 425±1° F. Internal temperatures were recorded upon exiting the oven and prior to packaging. […]
Chemical testing included the evaluation of pH on the dough out of the mixer (Table 15). […] A bake score, height, and volume were recorded for each test group. […] The pup loaves were evaluated for visible mold every day for the shelf-life portion of the study. A photograph of the visible mold was taken the day it was detected. The sensory analysis consisted of a quantitative descriptive analysis and a ranking performed by a trained panel. […]

[6] = Dough pH out of the mixer (Example 6); assay type: physicochemical
Procedure: Chemical testing included the evaluation of pH on the dough out of the mixer (Table 15). Measurement for pH was made using a pH meter. A bake score, height, and volume were recorded for each test group. The bake score examined the crust color, loaf symmetry, uniformity of the break and shred, crumb texture, crumb grain, crumb color, taste, and aroma. The pup loaves were evaluated for visible mold every day for the shelf-life portion of the study. A photograph of the visible mold was taken the day it was detected. The sensory analysis consisted of a quantitative descriptive analysis and a ranking performed by a trained panel. […] The descriptive analysis covered the crumb texture and flavor of the test groups. The sensory analysis was performed on Days 3, 6, 9, 12, and 15. No sensory analysis was performed on bread that had visible mold.
The temperature of the loaves out of the oven and prior to packaging were recorded in Table 14. Dough was removed from the mixing bowl and then analyzed for pH.

[7] = 0.3 wt. % on flour (order of Table 2)
[8] = 1 wt. % on flour (order of Table 2)

Row | Structure (SMILES) | Water Activity [1, 7] | pH [1, 7] | Water Activity [1, 8] | pH [1, 8] | Water Activity [2, 7] | pH [2, 7] | Water Activity [2, 8] | pH [2, 8] | mold after day 30 up to day 45 ([3]; 1 wt. % on flour, bags no longer opened each day) | day visible mold developed (replicate loaves) ([3]; 1 wt. % on flour, stored 70-73 F, opened daily, 30-day study) | days on which visible mold developed (replicates) ([4]; 1 wt. % on flour, 68-73 F, opened daily) | mold after day 30 up to day 45 ([4]; 1 wt. %, remaining replicate, bags no longer opened) | Day of Visible Mold ([5]; 0.5 wt. %) | Day of Visible Mold ([5]; 0.8 wt. %) | mold inhibitor performance ([3]; 0.3 wt. % on flour) | Dough pH ([6]; 0.5 wt. % mold inhibitor) | Dough pH ([6]; 0.8 wt. % mold inhibitor)
1 | CCC(=O)[O-].CCC(=O)[O-].[Ca+2] [BV CP, calcium propionate] | 0.9535 | 5.65 | 0.9448 | 5.73 | 0.9548 | 6.98 | 0.9612 | 6.87 | no signs of mold growth or off odor at day 45 | > 30 days | 30 days | > 45 days |  |  |  |  | 
2 | CCC(=O)[O-].CCC(=O)[O-].[Ca+2] [CCP, calcium propionate, reference compound] | 0.9564 | 5.40 |  |  | 0.9502 | 6.7 |  |  |  |  |  |  | 7 days | 9 days | performed similar to the natural calcium propionate (BV CP) | 5.34 | 5.53
